Here are results for 19 compounds from patent US20250122169A1, “PPARG INVERSE AGONISTS AND USES THEREOF” (Flare Therapeutics Inc., priority 2021, published 2025).

For assay [1], the system named is ANGPTL4, a PPARG target gene, in HT1197 (RXRA S427F mutation) cells. The experiment in a line: Bladder cancer pharmacodynamic assay, HT1197 cell assay (qPCR of PPARG target gene ANGPTL4). To be noted: Homo sapiens; for inhibition at 0.1 µM: read-out: % inhibition of ANGPTL4 @ 100 nM, 100 nM compound, 24 hours, relative to DMSO control; for EC50: 24 hours treatment, qPCR. It counts as cell-based. As for the experimental part: Quantitative PCR was performed using an ABI QuantStudio 7 Flex Reaction system. Data were analyzed and reported relative to DMSO control using the comparative Ct method (ΔΔCt).
(In qPCR the cycle at which signal appears reflects the starting amount.)

Assay [2] deals with T1, PPARG/RXRA LBD heterodimer (Homo sapiens, UniProt P37231).
T1 construct: His-TEV-Q203-Y477; Uniprot ID P37231-2; made in house; host or cells: E. coli
T1 sequence (P37231 203-477 isoform P37231-2): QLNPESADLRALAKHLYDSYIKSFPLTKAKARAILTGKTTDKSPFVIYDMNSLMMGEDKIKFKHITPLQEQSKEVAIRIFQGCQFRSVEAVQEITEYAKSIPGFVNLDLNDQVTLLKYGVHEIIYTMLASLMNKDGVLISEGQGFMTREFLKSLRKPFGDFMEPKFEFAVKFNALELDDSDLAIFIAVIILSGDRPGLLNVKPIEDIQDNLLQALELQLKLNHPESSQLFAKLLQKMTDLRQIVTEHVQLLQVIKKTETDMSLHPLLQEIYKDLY
T1 sequence (P19793 228-462 partner limits assumed): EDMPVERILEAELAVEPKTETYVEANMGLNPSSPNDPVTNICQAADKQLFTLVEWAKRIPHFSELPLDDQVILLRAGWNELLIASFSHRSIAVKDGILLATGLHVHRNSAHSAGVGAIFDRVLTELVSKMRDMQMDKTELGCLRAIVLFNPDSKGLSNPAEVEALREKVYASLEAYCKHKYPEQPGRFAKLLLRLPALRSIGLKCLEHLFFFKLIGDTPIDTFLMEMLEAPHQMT
Kind of assay: PPARγ-MED1 blockade assay (TR-FRET). It counts as biochemical. The settings on record: for EC50: TR-FRET, MED1 LxxLL peptide, 80 nM Rosiglitazone, 3 hours; for Emax: maximal extent, GW9662 defined as 100%, DMSO 0%, read-out: % MED1 blockade relative to GW9662. How it is done: Compound potency (IC50) and maximal extent of MED1 repulsion to PPARG were assessed a TR-FRET binding assay measuring association of a biotinylated MED1 LxxLL peptide (Biotin-[…]-amide) to PPARG/RXRA LBD heterodimer.
On the technique in general: Time-resolved FRET reads energy transfer from a long-lived donor to a nearby acceptor.

In assay [3] the target is T2, PPARG/RXRA LBD heterodimer (Homo sapiens, UniProt P37231).
T2 construct: 2 nM WT PPARG LBD (E. coli expressed, His-TEV-Q203-Y477); fused on or other part: N-terminal His tag with TEV site on the PPARG LBD
The experiment in a line: PPARγ-NCOR1 recruitment assay (TR-FRET). It counts as biochemical. The settings on record: for Emax: 3 h, maximal extent, T0070907 defined as 100%, DMSO 0%, read-out: % NCOR recruitment relative to T907; for EC50: TR-FRET, NCOR1 ID2 peptide, 80 nM Rosiglitazone, 3 hours, read-out: PPARG-NCOR recruitment assay EC50. As for the experimental part:
Compound potency (EC50) and maximal extent of NCOR1 recruitment to PPARG were assessed a TR-FRET binding assay measuring association of a biotinylated NCOR1 ID2 peptide (Biotin-[…]-amide) to PPARG/RXRA LBD heterodimer.
T2 sequence (O75376 2251-2273 limits assumed, one chain of several, further chain): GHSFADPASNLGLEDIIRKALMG

One may read the inhibition as the percentage by which the read-out fell short of the control. The EC50 is the concentration at which the effect is half-maximal. Turning to `CN(C)C(=O)[C@@H]1CCN(c2c(F)cc3[nH]c(-c4cc(C#N)ncc4Cl)cc(=O)c3c2F)C1` [Example 25, (R)-1-(2-(5-chloro-2-cyanopyridin-4-yl)-5,7-difluoro-4-oxo-1,4-dihydroquinolin-6-yl)-N,N-dimethylpyrrolidine-3-carboxamide], in assay [1], the inhibition at 0.1 µM was 86%. In assay [2], the EC50 is less than 10 nM and the Emax was greater than 100%. Besides, in assay [3], the Emax is greater than 100% and the EC50 was less than 10 nM.

Regarding `N#Cc1cc(-c2cc(=O)c3ccc(Cl)cc3[nH]2)c(Cl)cn1` [Example 4, 5-chloro-4-(7-chloro-4-oxo-1,4-dihydroquinolin-2-yl)picolinonitrile], the inhibition at 0.1 µM in assay [1] is 88%. Moreover, in assay [2], the EC50 was less than 10 nM and the Emax was greater than 100%. In addition, in assay [3], the Emax is greater than 100% and the EC50 was less than 10 nM.

As for `COc1cnc(C#N)cc1-c1cc(=O)c2c(F)cc(F)cc2[nH]1` [Example 9, 4-(5,7-difluoro-4-oxo-1,4-dihydroquinolin-2-yl)-5-methoxypicolinonitrile], in assay [1], the inhibition at 0.1 µM was determined as 22%. Further, in assay [2], the EC50 lay in the range of 100 to 1000 nM and the Emax is greater than 100%. In assay [3], the Emax is less than 100% and the EC50 lay within 100 to 1000 nM.

`CN1CCN(c2cc3c(=O)cc(-c4cc(C#N)ncc4Cl)[nH]c3cc2Cl)CC1` [Example 14, 5-chloro-4-(7-chloro-6-(4-methylpiperazin-1-yl)-4-oxo-1,4-dihydroquinolin-2-yl)picolinonitrile]: the inhibition at 0.1 µM in assay [1] is 88%. Also, the EC50 in assay [2] and in assay [3] was 10 to 100 nM each time. The Emax in assay [2] and in assay [3] was greater than 100% throughout.

On to `N#Cc1ccc(Cl)c(-c2cc(=O)c3c(F)cc(F)cc3[nH]2)n1` [Example 3, 5-chloro-6-(5,7-difluoro-4-oxo-1,4-dihydroquinolin-2-yl)picolinonitrile], for which, in assay [1], the EC50 came out at 0.09 nM and the inhibition at 0.1 µM amounted to 95%. Further, in assay [2], the EC50 is less than 10 nM and the Emax is greater than 100%. Moreover, in assay [3], the Emax was greater than 100% and the EC50 was less than 10 nM.

Take `CN(C)C(=O)N1CCN(c2c(F)cc3[nH]c(-c4cc(C#N)ncc4Cl)cc(=O)c3c2F)CC1` [Example 21, 4-(2-(5-chloro-2-cyanopyridin-4-yl)-5,7-difluoro-4-oxo-1,4-dihydroquinolin-6-yl)-N,N-dimethylpiperazine-1-carboxamide]: in assay [1], the inhibition at 0.1 µM was 81%. Moreover, in assay [2], the EC50 was less than 10 nM and the Emax was greater than 100%. For the same compound, in assay [3], the Emax was greater than 100% and the EC50 is less than 10 nM.

Regarding `CS(=O)(=O)c1ccc(C#N)nc1-c1cc(=O)c2c(F)cc(F)cc2[nH]1` [Example 32, 6-(5,7-difluoro-4-oxo-1,4-dihydroquinolin-2-yl)-5-(methylsulfonyl)picolinonitrile], the inhibition at 0.1 µM in assay [1] worked out at 87%. In addition, in assay [2], the EC50 is less than 10 nM and the Emax is greater than 100%. Further, in assay [3], the Emax was greater than 100% and the EC50 is less than 10 nM.

Take `N#Cc1cnc(Cl)c(-c2cc(=O)c3c(F)cc(F)cc3[nH]2)c1` [Example 27, 6-chloro-5-(5,7-difluoro-4-oxo-1,4-dihydroquinolin-2-yl)nicotinonitrile]: the inhibition at 0.1 µM in assay [1] was 70%. In assay [2], the EC50 is 10 to 100 nM and the Emax is greater than 100%. In assay [3], the Emax is greater than 100% and the EC50 is 10 to 100 nM.

On to `CN1CCN(c2c(F)cc3[nH]c(-c4nc(C#N)ccc4Cl)cc(=O)c3c2F)CC1` [Example 13, 5-chloro-6-(5,7-difluoro-6-(4-methylpiperazin-1-yl)-4-oxo-1,4-dihydroquinolin-2-yl)picolinonitrile], for which the inhibition at 0.1 µM in assay [1] turned out to be 78%. Also, in assay [2], the EC50 fell in the range of 10 to 100 nM and the Emax is greater than 100%. In assay [3], the Emax is greater than 100% and the EC50 fell in the range of 10 to 100 nM.

`CS(=O)(=O)c1cnc(C#N)cc1-c1cc(=O)c2c(F)cc(Cl)cc2[nH]1` [Example 31, 4-(7-chloro-5-fluoro-4-oxo-1,4-dihydroquinolin-2-yl)-5-(methylsulfonyl)picolinonitrile]: the inhibition at 0.1 µM in assay [1] stood at 86%. For the same compound, in assay [2], the EC50 is less than 10 nM and the Emax is greater than 100%. In assay [3], the Emax is greater than 100% and the half-maximal effective concentration (EC50) is less than 10 nM.

As for `CN1CCC(c2c(F)cc3[nH]c(-c4cc(C#N)ncc4Cl)cc(=O)c3c2F)CC1` [Example 20, 5-chloro-4-(5,7-difluoro-6-(1-methylpiperidin-4-yl)-4-oxo-1,4-dihydroquinolin-2-yl)picolinonitrile], the inhibition at 0.1 µM in assay [1] is 80%. The EC50 in assay [2] and in assay [3] was 10 to 100 nM throughout. In addition, the Emax in assay [2] and in assay [3] was greater than 100% each time.

As for `N#Cc1ccc(Cl)c(-c2cc(=O)c3ccccc3[nH]2)n1` [Example 5, 5-chloro-6-(4-oxo-1,4-dihydroquinolin-2-yl)picolinonitrile], in assay [1], the inhibition at 0.1 µM was determined as 71%. Further, in assay [2], the EC50 was 10 to 100 nM and the Emax was greater than 100%. In addition, in assay [3], the Emax is less than 100% and the EC50 was in the range of 10 to 100 nM.

Regarding `COc1ccc(C#N)nc1-c1cc(=O)c2c(F)cc(F)cc2[nH]1` [Example 7, 6-(5,7-difluoro-4-oxo-1,4-dihydroquinolin-2-yl)-5-methoxypicolinonitrile], in assay [1], the inhibition at 0.1 µM amounted to 23%. In assay [2], the EC50 is greater than 10000 nM and the Emax is greater than 100%. Further, in assay [3], the Emax is greater than 100% and the 50% effective concentration (EC50) is greater than 10000 nM.

Turning to `CN(C)C(=O)[C@H]1CCN(c2c(F)cc3[nH]c(-c4cc(C#N)ncc4Cl)cc(=O)c3c2F)C1` [Example 26, (S)-1-(2-(5-chloro-2-cyanopyridin-4-yl)-5,7-difluoro-4-oxo-1,4-dihydroquinolin-6-yl)-N,N-dimethylpyrrolidine-3-carboxamide], the inhibition at 0.1 µM in assay [1] came to 85%. Further, in assay [2], the EC50 was less than 10 nM and the Emax is greater than 100%. For the same compound, in assay [3], the Emax is greater than 100% and the EC50 was less than 10 nM.

Turning to `CN(C)C(=O)C1CCN(c2c(F)cc3[nH]c(-c4cc(C#N)ncc4Cl)cc(=O)c3c2F)CC1` [Example 19, 1-(2-(5-chloro-2-cyanopyridin-4-yl)-5,7-difluoro-4-oxo-1,4-dihydroquinolin-6-yl)-N,N-dimethylpiperidine-4-carboxamide], in assay [1], the inhibition at 0.1 µM amounted to 84%. For the same compound, in assay [2], the half-maximal effective concentration (EC50) is 10 to 100 nM and the Emax was greater than 100%. Further, in assay [3], the Emax was greater than 100% and the concentration for a half-maximal effect (EC50) was in the range of 10 to 100 nM.

With `CS(=O)(=O)c1cnc(C#N)cc1-c1cc(=O)c2c(F)cc(F)cc2[nH]1` [Example 29, 4-(5,7-difluoro-4-oxo-1,4-dihydroquinolin-2-yl)-5-(methylsulfonyl)picolinonitrile], in assay [1], the EC50 is 0.49 nM and the inhibition at 0.1 µM stood at 90%.

As for `CN(C)C(=O)[C@H]1CCCN(c2c(F)cc3[nH]c(-c4cc(C#N)ncc4Cl)cc(=O)c3c2F)C1` [Example 23, (S)-1-(2-(5-chloro-2-cyanopyridin-4-yl)-5,7-difluoro-4-oxo-1,4-dihydroquinolin-6-yl)-N,N-dimethylpiperidine-3-carboxamide], in assay [1], the inhibition at 0.1 µM stood at 76%. In addition, in assay [2], the 50% effective concentration (EC50) is less than 10 nM and the Emax is greater than 100%. In assay [3], the Emax is greater than 100% and the EC50 is less than 10 nM.

Take `CN(C)CCOc1cnc(C#N)cc1-c1cc(=O)c2c(F)cc(F)cc2[nH]1` [Example 11, 4-(5,7-difluoro-4-oxo-1,4-dihydroquinolin-2-yl)-5-(2-(dimethylamino)-ethoxy)-picolinonitrile]: the inhibition at 0.1 µM in assay [1] is 58%. Further, in assay [2], the EC50 lay in the range of 1000 to 10000 nM and the Emax was greater than 100%. In assay [3], the Emax is greater than 100% and the EC50 lay in the range of 1000 to 10000 nM.

As to `CSc1ccc(C#N)nc1-c1cc(=O)c2c(F)cc(F)cc2[nH]1` [Example 8, 6-(5,7-difluoro-4-oxo-1,4-dihydroquinolin-2-yl)-5-(methylthio)picolinonitrile], the EC50 in assay [2] and in assay [3] was greater than 10000 nM throughout. Further, the Emax in assay [2] and in assay [3] was greater than 100% each time.
